Experimental data published in US12403135B2, “4H-pyrrolo[3,2-c]pyridin-4-one derivatives” (Bayer Aktiengesellschaft, priority 2019, dated 2025).

Experiments:
Type in all cases: cell-based
[1] = system: Ba/F3-EGFR-delLREA cells (EGFR del19/delLREA (746-750), E746_A750del); experiment: BA/F3 EGFR del19/delLREA (746-750) (E746_A750del) cell survival assay, Cell Titer-Glo; details: Table 10, classical activating and uncommon EGFR mutations, read-out: BA/F3 (EGFR E746_A750del) IC50
Method: (§1) Plates were incubated at 37° C. for 48 h. Retrovirus was harvested by filtering the media supernatant through a 0.45 μm filter.
(§2) Ba/F3 cells purchased from DSMZ were grown in RPMI+10% FBS+10 ng/mL IL-3 and infected with filtered retroviral supernatant at a 1:2 dilution. Polybrene was added to a concentration of 8 μg/mL, plates were spun for 90 min, and incubated overnight at 37° C. 2 μg/mL puromycin was added to the infected cells 24 h after infection and cells were continually grown in the presence of puromycin and 10 ng/mL IL-3. Following stably expressing Ba/F3 cell lines were generated: Ba/F3-EGFR-L858R, Ba/F3-EGFR-delLREA, (Ba/F3-vector-control).
(§3) For cell survival assays, Ba/F3 cells were grown to a density of 1-2 million cells per mL, spun down and resuspended in media without IL-3, and replated at a concentration 200,000-500,000 cells per mL. The cells ectopically expressing pBABEpuro empty vector were plated with 10 ng/mL IL-3.
(§4) 2 days later, cells were plated in 50 μL in a 384 well plate at a concentration of 4000 cells per well for cells assayed in the absence of IL-3 and 2000 cells per well for cells (pBABE puro empty vector) assayed in the presence of IL-3. 100 nL of compound was added to each well using a 100 nL pin head, and plates were incubated at 37° C. for 48 h.
(§5) Cell viability was measured by adding 20 μL of Cell Titer-Glo Luminescent Cell Viability Reagent diluted 1:3 in PBS. Plates were sealed with Perkin Elmer Top-Seal, inverted several times to mix, and immediately centrifuged at 1000 rpm for 2 min. Plates were incubated in low light conditions for 8-10 min and luminescence was measured.

Ba/F3-EGFR-L858R cells = Ba/F3-EGFR-L858R cells (Homo sapiens, UniProt P00533, L858R, cells depend on it); experiment: BA/F3 EGFR L858R cell survival assay, Cell Titer-Glo; details: Table 10; classical activating and uncommon EGFR mutations; read-out: BA/F3 (EGFR L858R) IC50
Sequence of Ba/F3-EGFR-L858R cells (P00533 whole entry L858R): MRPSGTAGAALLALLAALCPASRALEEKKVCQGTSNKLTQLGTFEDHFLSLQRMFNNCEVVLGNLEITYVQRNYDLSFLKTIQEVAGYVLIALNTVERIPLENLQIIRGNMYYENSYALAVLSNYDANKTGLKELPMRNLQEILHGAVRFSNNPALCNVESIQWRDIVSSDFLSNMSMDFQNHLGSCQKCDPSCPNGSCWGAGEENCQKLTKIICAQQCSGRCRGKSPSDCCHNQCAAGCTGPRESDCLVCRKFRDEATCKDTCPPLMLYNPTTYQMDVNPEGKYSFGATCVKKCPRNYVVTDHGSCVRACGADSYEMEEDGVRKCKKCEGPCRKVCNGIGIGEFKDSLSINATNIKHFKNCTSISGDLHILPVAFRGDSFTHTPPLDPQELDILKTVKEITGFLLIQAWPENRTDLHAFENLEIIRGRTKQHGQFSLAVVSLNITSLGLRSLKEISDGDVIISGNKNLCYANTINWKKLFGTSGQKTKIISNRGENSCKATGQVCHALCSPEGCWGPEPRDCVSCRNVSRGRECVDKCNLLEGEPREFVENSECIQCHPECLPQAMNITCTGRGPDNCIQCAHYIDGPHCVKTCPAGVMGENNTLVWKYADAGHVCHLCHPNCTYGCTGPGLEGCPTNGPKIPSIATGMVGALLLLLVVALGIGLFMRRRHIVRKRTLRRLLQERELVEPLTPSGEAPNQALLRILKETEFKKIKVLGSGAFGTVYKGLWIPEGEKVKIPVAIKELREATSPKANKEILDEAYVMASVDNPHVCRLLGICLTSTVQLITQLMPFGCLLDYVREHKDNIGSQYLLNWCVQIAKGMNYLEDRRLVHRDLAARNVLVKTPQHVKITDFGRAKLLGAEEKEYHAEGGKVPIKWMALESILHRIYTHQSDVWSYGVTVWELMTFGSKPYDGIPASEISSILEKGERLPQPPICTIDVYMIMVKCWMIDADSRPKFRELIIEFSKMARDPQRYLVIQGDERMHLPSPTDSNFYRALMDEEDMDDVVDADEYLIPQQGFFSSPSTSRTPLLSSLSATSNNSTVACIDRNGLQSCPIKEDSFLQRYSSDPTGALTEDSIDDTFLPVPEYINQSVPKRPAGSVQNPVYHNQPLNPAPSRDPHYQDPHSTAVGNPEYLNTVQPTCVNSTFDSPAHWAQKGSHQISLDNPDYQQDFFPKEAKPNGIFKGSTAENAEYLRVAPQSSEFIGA
Method: as §1, §2, §3, §4, §5

[2] = target: Ba/F3-EGFR-D770_N771 insNPG cells (Homo sapiens, UniProt P00533, INS772GNP, cells depend on it); experiment: BA/F3 (insNPG) proliferation, EGFR Exon20 insertion mutation; details: Table 9; EGFR Exon20 insertion mutations; read-out: BA/F3 (insNPG) IC50
Sequence of Ba/F3-EGFR-D770_N771 insNPG cells (P00533 with tags, fused parts or gaps INS772GNP): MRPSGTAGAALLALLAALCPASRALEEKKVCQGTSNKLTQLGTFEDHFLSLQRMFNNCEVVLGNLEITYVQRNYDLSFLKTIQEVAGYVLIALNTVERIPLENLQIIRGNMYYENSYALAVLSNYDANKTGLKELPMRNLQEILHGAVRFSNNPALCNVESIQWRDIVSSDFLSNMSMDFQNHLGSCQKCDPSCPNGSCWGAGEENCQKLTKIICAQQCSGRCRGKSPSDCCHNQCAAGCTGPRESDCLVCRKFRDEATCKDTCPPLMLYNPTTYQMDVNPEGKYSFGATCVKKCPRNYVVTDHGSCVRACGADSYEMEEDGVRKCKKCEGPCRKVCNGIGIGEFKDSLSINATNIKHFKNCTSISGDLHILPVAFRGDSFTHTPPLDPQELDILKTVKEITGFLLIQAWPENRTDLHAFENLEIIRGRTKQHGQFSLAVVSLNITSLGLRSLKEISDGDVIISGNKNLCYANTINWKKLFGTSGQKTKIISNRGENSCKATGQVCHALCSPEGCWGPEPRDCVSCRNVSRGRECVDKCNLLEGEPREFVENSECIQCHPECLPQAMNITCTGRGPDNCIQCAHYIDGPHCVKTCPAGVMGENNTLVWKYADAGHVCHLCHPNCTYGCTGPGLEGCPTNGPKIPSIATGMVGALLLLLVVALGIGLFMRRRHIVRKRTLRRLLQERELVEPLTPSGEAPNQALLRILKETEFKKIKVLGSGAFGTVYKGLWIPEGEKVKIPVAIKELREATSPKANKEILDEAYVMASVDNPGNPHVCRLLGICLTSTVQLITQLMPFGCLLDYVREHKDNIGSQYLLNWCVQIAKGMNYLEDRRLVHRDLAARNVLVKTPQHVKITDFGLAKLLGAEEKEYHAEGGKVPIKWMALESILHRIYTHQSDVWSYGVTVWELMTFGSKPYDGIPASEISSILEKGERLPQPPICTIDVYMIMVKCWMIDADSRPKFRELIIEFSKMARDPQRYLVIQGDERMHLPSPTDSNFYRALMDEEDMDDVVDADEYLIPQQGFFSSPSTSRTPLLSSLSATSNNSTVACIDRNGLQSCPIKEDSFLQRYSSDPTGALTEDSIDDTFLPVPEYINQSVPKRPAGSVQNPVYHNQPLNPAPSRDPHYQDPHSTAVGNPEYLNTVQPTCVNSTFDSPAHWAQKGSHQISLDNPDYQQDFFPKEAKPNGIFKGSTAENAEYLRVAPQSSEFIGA
Method: as §1
as §2, with “Ba/F3-EGFR-V769_D770 insASV, Ba/F3-EGFR-D770_N771 insNPG, Ba/F3-EGFR-N771_P772 insH, Ba/F3-EGFR-H773_V774 insNPH, Ba/F3-EGFR-D770_N771 insSVD C797S, Ba/F3-EGFR-E746_A750del C797S, Ba/F3-EGFR-L858R C797S, Ba/F3-EGFR L861Q and Ba/F3-ERBB2-A775_G776insYVMA” for “Ba/F3-EGFR-L858R, Ba/F3-EGFR-delLREA,”

[3] = target: Ba/F3-EGFR-V769_D770 insASV cells (Homo sapiens, UniProt P00533, DUP767-769, cells depend on it); experiment: BA/F3 (ASV) proliferation, EGFR Exon20 insertion mutation; details: Table 9; EGFR Exon20 insertion mutations; read-out: BA/F3 (ASV) IC50
Sequence of Ba/F3-EGFR-V769_D770 insASV cells (P00533 with tags, fused parts or gaps DUP767-769): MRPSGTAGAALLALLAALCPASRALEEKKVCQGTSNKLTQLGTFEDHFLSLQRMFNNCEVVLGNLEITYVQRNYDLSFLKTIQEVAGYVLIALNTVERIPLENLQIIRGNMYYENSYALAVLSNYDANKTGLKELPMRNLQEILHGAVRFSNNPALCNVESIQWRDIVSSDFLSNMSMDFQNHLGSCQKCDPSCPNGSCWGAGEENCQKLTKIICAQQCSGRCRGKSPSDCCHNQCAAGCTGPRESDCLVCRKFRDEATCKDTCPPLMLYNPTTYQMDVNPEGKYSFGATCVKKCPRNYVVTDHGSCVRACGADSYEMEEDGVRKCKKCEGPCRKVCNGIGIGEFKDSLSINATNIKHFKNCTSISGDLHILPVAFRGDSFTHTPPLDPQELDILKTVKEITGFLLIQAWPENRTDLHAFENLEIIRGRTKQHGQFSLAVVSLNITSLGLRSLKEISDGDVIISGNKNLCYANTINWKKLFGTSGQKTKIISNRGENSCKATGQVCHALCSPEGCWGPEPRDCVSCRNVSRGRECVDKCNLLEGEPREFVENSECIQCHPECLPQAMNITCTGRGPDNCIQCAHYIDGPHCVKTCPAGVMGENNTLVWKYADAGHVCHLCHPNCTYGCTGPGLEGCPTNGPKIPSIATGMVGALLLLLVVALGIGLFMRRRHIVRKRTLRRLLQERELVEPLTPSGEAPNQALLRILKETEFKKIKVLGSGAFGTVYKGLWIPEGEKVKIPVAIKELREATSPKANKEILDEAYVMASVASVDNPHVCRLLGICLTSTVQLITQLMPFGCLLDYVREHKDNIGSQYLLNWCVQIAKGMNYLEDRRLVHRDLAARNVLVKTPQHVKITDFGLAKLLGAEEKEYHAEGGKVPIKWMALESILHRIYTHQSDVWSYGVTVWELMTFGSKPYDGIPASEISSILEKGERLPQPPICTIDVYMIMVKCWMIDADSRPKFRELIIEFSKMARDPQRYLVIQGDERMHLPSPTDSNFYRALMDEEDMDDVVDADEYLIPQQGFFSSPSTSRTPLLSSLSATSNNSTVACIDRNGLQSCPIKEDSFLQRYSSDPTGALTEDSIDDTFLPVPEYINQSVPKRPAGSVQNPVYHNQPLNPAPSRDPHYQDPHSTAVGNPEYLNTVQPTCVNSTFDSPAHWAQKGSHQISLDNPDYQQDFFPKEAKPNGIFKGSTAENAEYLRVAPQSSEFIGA
Method: as §1
as §2, with “Ba/F3-EGFR-V769_D770 insASV, Ba/F3-EGFR-D770_N771 insNPG, Ba/F3-EGFR-N771_P772 insH, Ba/F3-EGFR-H773_V774 insNPH, Ba/F3-EGFR-D770_N771 insSVD C797S, Ba/F3-EGFR-E746_A750del C797S, Ba/F3-EGFR-L858R C797S, Ba/F3-EGFR L861Q and Ba/F3-ERBB2-A775_G776insYVMA” for “Ba/F3-EGFR-L858R, Ba/F3-EGFR-delLREA,”

Ba/F3-EGFR L861Q cells = experiment: BA/F3 (EGFR L861Q) proliferation, uncommon EGFR mutation; details: Table 10, classical activating and uncommon EGFR mutations
Method: as §1
as §2, with “Ba/F3-EGFR-V769_D770 insASV, Ba/F3-EGFR-D770_N771 insNPG, Ba/F3-EGFR-N771_P772 insH, Ba/F3-EGFR-H773_V774 insNPH, Ba/F3-EGFR-D770_N771 insSVD C797S, Ba/F3-EGFR-E746_A750del C797S, Ba/F3-EGFR-L858R C797S, Ba/F3-EGFR L861Q and Ba/F3-ERBB2-A775_G776insYVMA” for “Ba/F3-EGFR-L858R, Ba/F3-EGFR-delLREA,”

[4] = system: Ba/F3-EGFR-D770_N771 insSVD C797S cells; experiment: BA/F3 (EGFR D770_N771 insSVD C797S) proliferation, acquired resistance; details: Ba/F3 EGFR-D770-N771ins_SVD; Table 11; acquired resistance space
Method: as §1
as §2, with “Ba/F3-EGFR-V769_D770 insASV, Ba/F3-EGFR-D770_N771 insNPG, Ba/F3-EGFR-N771_P772 insH, Ba/F3-EGFR-H773_V774 insNPH, Ba/F3-EGFR-D770_N771 insSVD C797S, Ba/F3-EGFR-E746_A750del C797S, Ba/F3-EGFR-L858R C797S, Ba/F3-EGFR L861Q and Ba/F3-ERBB2-A775_G776insYVMA” for “Ba/F3-EGFR-L858R, Ba/F3-EGFR-delLREA,”

[5] = system: Ba/F3-EGFR-E746_A750del C797S cells; experiment: BA/F3 (EGFR E746_A750del C797S) proliferation, acquired resistance; details: Table 11, acquired resistance space
Method: as §1
as §2, with “Ba/F3-EGFR-V769_D770 insASV, Ba/F3-EGFR-D770_N771 insNPG, Ba/F3-EGFR-N771_P772 insH, Ba/F3-EGFR-H773_V774 insNPH, Ba/F3-EGFR-D770_N771 insSVD C797S, Ba/F3-EGFR-E746_A750del C797S, Ba/F3-EGFR-L858R C797S, Ba/F3-EGFR L861Q and Ba/F3-ERBB2-A775_G776insYVMA” for “Ba/F3-EGFR-L858R, Ba/F3-EGFR-delLREA,”

[6] = system: Ba/F3-EGFR-L858R C797S cells; experiment: BA/F3 (EGFR L858R C797S) proliferation, acquired resistance; details: Table 11, acquired resistance space
Method: as §1
as §2, with “Ba/F3-EGFR-V769_D770 insASV, Ba/F3-EGFR-D770_N771 insNPG, Ba/F3-EGFR-N771_P772 insH, Ba/F3-EGFR-H773_V774 insNPH, Ba/F3-EGFR-D770_N771 insSVD C797S, Ba/F3-EGFR-E746_A750del C797S, Ba/F3-EGFR-L858R C797S, Ba/F3-EGFR L861Q and Ba/F3-ERBB2-A775_G776insYVMA” for “Ba/F3-EGFR-L858R, Ba/F3-EGFR-delLREA,”

[7] = target: Ba/F3-ERBB2-A775_G776insYVMA cells (Homo sapiens, UniProt P04626, DUP772-775, cells depend on it); experiment: BA/F3 (ERBB2 A775_G776 insYVMA) proliferation; details: Table 12; read-out: BA/F3 (ERBB2 A775_G776 insYVMA) IC50
Sequence of Ba/F3-ERBB2-A775_G776insYVMA cells (P04626 with tags, fused parts or gaps DUP772-775): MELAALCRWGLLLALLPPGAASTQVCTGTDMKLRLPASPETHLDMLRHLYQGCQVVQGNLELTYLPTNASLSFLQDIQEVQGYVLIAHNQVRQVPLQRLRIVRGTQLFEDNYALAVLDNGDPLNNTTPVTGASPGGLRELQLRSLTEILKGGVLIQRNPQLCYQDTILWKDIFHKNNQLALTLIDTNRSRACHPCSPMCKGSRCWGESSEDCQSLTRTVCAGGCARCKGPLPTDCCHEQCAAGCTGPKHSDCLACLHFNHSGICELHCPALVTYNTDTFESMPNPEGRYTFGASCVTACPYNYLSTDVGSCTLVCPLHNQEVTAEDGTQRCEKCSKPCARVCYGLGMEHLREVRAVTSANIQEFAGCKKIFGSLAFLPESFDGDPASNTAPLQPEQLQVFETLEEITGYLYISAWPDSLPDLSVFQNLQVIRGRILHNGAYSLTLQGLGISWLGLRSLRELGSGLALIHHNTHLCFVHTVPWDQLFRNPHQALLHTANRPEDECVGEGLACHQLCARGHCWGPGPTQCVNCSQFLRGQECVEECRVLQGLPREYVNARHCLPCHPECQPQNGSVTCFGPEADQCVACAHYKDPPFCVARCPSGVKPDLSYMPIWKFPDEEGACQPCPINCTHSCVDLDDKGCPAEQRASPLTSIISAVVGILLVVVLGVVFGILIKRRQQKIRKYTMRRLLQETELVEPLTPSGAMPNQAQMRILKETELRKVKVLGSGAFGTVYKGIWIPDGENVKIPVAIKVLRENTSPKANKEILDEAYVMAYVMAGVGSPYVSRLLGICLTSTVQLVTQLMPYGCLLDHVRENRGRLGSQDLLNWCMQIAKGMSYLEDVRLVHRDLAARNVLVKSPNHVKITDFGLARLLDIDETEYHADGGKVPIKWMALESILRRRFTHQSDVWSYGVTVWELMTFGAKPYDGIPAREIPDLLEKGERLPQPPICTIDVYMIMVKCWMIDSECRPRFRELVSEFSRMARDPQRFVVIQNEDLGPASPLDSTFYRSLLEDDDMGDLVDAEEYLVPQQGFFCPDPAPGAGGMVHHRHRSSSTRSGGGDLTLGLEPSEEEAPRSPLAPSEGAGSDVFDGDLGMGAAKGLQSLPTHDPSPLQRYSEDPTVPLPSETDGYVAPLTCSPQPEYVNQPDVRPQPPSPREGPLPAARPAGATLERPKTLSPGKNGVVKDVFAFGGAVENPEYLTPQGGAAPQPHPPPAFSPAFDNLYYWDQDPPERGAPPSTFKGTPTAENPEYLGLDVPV
Method: as §1
as §2, with “Ba/F3-EGFR-V769_D770 insASV, Ba/F3-EGFR-D770_N771 insNPG, Ba/F3-EGFR-N771_P772 insH, Ba/F3-EGFR-H773_V774 insNPH, Ba/F3-EGFR-D770_N771 insSVD C797S, Ba/F3-EGFR-E746_A750del C797S, Ba/F3-EGFR-L858R C797S, Ba/F3-EGFR L861Q and Ba/F3-ERBB2-A775_G776insYVMA” for “Ba/F3-EGFR-L858R, Ba/F3-EGFR-delLREA,”

PC9 cells (EGFRex19del) = experiment: PC9 cell proliferation, Cell Titer Glo, 72 h; details: Homo sapiens
Method: (§6) PC9 cells were purchased from ATCC. 400 PC9 cells per well were seeded in growth medium (DMEM, 10% FCS) in a 384-well plate (CORNING #3571). Seed reference plate for time zero determination on the same day. All plates were incubated overnight at 37° C. After 24 hours, test compound were added in 7-step dilution using HP Compound printer and incubated at 37° C. for 72 h. After 3 days, 30 μL/well CTG solution (Promega Cell Titer Glo solution; catalog #G755B and G756B) were added to each well, incubated for 30 minutes and the plate were read on PheraStar. Proliferation is calculated after subtracting time zero luminescence values from day 4 values and comparing to untreated wells. The IC50 values were determined using the four parameter fit.

[8] = system: HCC-827 cells (EGFRex19del); experiment: HCC-827 cell proliferation, Cell Titer Glo, 72 h; details: Homo sapiens
Method: as §6, with “HCC-827 cells” for “PC9 cells”, “[…]” for “400 PC9”, “medium (RPMI1640,” for “medium (DMEM,”, “wells.” for “wells. The IC50 values were determined using the four parameter fit.”
The IC50 values were determined using the four parameter fit.

[9] = PC-9, Table 12, several values per example
[10] = HCC827, Table 12, several values per example

| IC50 (PC9 cells (EGFRex19del); PC-9, 72 h, Table 12, several values per example) | IC50 ([8]; HCC827, 72 h, Table 12, several values per example) | Compound | IC50 [1] | GI50 (Ba/F3-EGFR-L858R cells) | GI50 [2] | GI50 [3] | IC50 (Ba/F3-EGFR L861Q cells) | IC50 [4] | IC50 [5] | IC50 [6] | GI50 [7] | IC50 (PC9 cells (EGFRex19del); [9]) | IC50 [8, 10] |
| --- | --- | --- | --- | --- | --- | --- | --- | --- | --- | --- | --- | --- | --- |
| 3.27 nM | < 3 nM | COc1c(F)cccc1Nc1c(-c2ccncc2OC[C@@H](C)OC)[nH]c2c1C(=O)NCC2 [Example 92, 3-(3-fluoro-2-methoxyanilino)-2-{3-[(2R)-2-methoxypropoxy]pyridin-4-yl}-1,5,6,7-tetrahydro-4H-pyrrolo[3,2-c]pyridin-4-one] | 0.375 nM | 1.31 nM | 13.9 nM | 17.2 nM | 38 nM | 25.6 nM | 0.363 nM | 1.61 nM | 14.9 nM |  |  |
|  |  | COc1c(Cl)cccc1Nc1c(-c2ccncc2OC[C@H]2CCCO2)[nH]c2c1C(=O)NCC2 [Example 67, 3-(3-chloro-2-methoxyanilino)-2-(3-{[(2R)-oxolan-2-yl]methoxy}pyridin-4-yl)-1,5,6,7-tetrahydro-4H-pyrrolo[3,2-c]pyridin-4-one] | 0.643 nM | 1.48 nM | 13.1 nM | 12.8 nM | 19 nM | 23.8 nM | 0.387 nM | 1.82 nM | 11.5 nM | 1.77 nM | < 3 nM |
|  |  | COc1c(Cl)cccc1Nc1c(-c2ccncc2OC[C@@H]2CCCO2)[nH]c2c1C(=O)NCC2 [Example 66, 3-(3-chloro-2-methoxyanilino)-2-(3-{[(2S)-oxolan-2-yl]methoxy}pyridin-4-yl)-1,5,6,7-tetrahydro-4H-pyrrolo[3,2-c]pyridin-4-one] | < 0.15 nM | 0.685 nM | 5.57 nM | 6.4 nM | 9.81 nM | 15.3 nM | 0.288 nM | 1.22 nM | 6.62 nM | 0.944 nM | < 3 nM |
|  |  | COc1c(Cl)cccc1Nc1c(-c2ccncc2OCC(C)(C)OC)[nH]c2c1C(=O)NCC2 [Example 33, 3-(3-chloro-2-methoxyanilino)-2-[3-(2-methoxy-2-methylpropoxy)pyridin-4-yl]-1,5,6,7-tetrahydro-4H-pyrrolo[3,2-c]pyridin-4-one] | 2.96 nM | 3.16 nM | 26.2 nM | 30.4 nM | 57.3 nM | 49.4 nM | 1.42 nM | 3.34 nM | 41.1 nM |  |  |
